Values joined by “and” are separate entries in the source; they are usually repeats but may differ in a detail not shown here. Equal entries are not always repeated.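 Grown in 96-well plates, cells were treated for 48 hours with each compound at five concentrations. Insufficient inhibition: endpoint recorded as highest concentration tested. Abbreviation: GI50, concentration required for 50% inhibition of growth. TGI: total growth inhibition.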
How the values were obtained:
Test in all cases: growth of human tumour cells (NCI), 48 h
MDA-MB-231 breast = tested on: MDA-MB-231 breast
MDA-MB-435 = tested on: MDA-MB-435
NCI/ADR-RES ovarian = tested on: NCI/ADR-RES ovarian
T-47D breast = tested on: T-47D breast
MDA-N = tested on: MDA-N
M19-MEL melanoma = tested on: M19-MEL melanoma
HOP-18 NSCLC = tested on: HOP-18 NSCLC
DMS 114 small cell lung = tested on: DMS 114 small cell lung

SMILES	GI50 (MDA-MB-231 breast)	TGI (MDA-MB-231 breast)	GI50 (MDA-MB-435)	TGI (MDA-MB-435)	TGI (NCI/ADR-RES ovarian)	GI50 (T-47D breast)	TGI (T-47D breast)	GI50 (NCI/ADR-RES ovarian)	TGI (MDA-N)	GI50 (MDA-N)	TGI (M19-MEL melanoma) [µM]	TGI (HOP-18 NSCLC) [µM]	TGI (DMS 114 small cell lung) [µM]
Nc1ccn(C2OC(CO)C(O)C2F)c(=O)n1 (stereo unspecified)	> 5000 µM	> 5000 µM	867 µM and > 5000 µM	> 5000 µM	> 5000 µM	> 5000 µM	> 5000 µM						
C=C(Cn1c(=O)c2ccccc2c2ccccc21)c1ccc(C(=O)Nc2ccccc2N)cc1	1.75 µM	> 27.8 µM	24.2 µM	> 100 µM	> 57.8 µM	3.86 µM	> 69.3 µM	3.78 µM					
C=C1C(=O)O[C@H]2[C@H]1CC/C(CNC(=O)/C=C/c1ccc(Br)cc1)=C\CC[C@@]1(C)O[C@@H]21	1.41 µM	2.94 µM	0.632 µM	2.07 µM	10.5 µM	1.74 µM	4.73 µM	2.59 µM					
COc1ccc2c(c1)C(=O)c1c-2n(CCCN)c(=O)c2ccccc12	0.0704 µM	0.24 µM	0.146 µM	1.61 µM	1.95 µM	< 0.0218 µM	0.109 µM	0.0992 µM					
CC/C(Cc1ccccc1)=C(\c1ccc(OCCN2CCCCCC2)cc1)c1ccc(OC(=O)NCc2ccccc2)cc1	2.59 µM	9.02 µM	1.54 µM	5.08 µM	12.3 µM	0.916 µM	7.91 µM	3.9 µM					
COc1ccc(C#Cc2ccccc2C#CCCCCO)cc1	17.3 µM	32.2 µM	21.1 µM	38.9 µM	48.4 µM	22 µM	43.8 µM	24.4 µM					
O=S(=O)(Nc1ncccn1)c1ccc(N=Nc2ccc(O)c3ncccc23)cc1	15.9 µM	97.1 µM	5.31 µM	21.8 µM	51.8 µM			5.37 µM					
CN1C(=O)c2c(ccc3c2OCO3)C2C(O)Cc3cc4c(cc3C21)OCO4 (stereo unspecified)		18.3 µM			8.28 µM				5.56 µM				
COc1cccc([C@H]2CC(=O)c3cc4c(cc3N2)OCO4)c1	0.716 µM	> 100 µM	0.0177 µM	0.044 µM			> 100 µM	0.036 µM		0.0287 µM			
O=[N+]([O-])c1ccc(Nc2ccccc2-c2ccccc2)c2nonc12	14.5 µM	31.2 µM	13.9 µM	45.9 µM	34.7 µM	10.5 µM	> 100 µM	13.6 µM					
CCSc1nnc2c(-c3ccccc3)n[nH]c2n1		> 100 µM		> 100 µM	> 100 µM		> 100 µM		> 100 µM				
COc1cccc2c1C(=O)c1c(O)c3c(c(O)c1C2=O)CC(O)(C(C)=O)CC3OC1CC(N)C(O)C(C)O1 (stereo unspecified)	0.0409 µg/mL	0.59 µg/mL	0.0894 µg/mL	0.33 µg/mL	25 µg/mL	0.0185 µg/mL	0.216 µg/mL	3.52 µg/mL	0.391 µg/mL	0.156 µg/mL			
N=C(c1ccccc1)N(c1ccccc1)c1ccccc1											> 100	13.1	
CC1=CCC[C@@]2(C)C(CC[C@@H]2C(C)/C=C/C(C)C)c2ccc(cc2C(=O)O)C[C@@H](O)CC1 (stereo partly specified)											29.6		40.3
NS(=O)(=O)c1ccc(NC(=O)c2ccc(NC3=C(Cl)C(=O)N(Cc4ccccc4)C3=O)cc2)cc1	2.65 µM	8.11 µM	10.6 µM	26.5 µM	43.3 µM	18.4 µM	> 100 µM	19.6 µM					
CC1=C([Se]CC(OC(=O)[C@@H](CSSC(C)(C)C)NC(=O)OC(C)(C)C)C(=O)NC(C)(C)C)C(=O)c2ccccc2C1=O (stereo partly specified)	1.45 µM	2.76 µM	1.64 µM	3 µM		1.44 µM	3.48 µM						
Cc1cc(C)nc(NC(N)=NCCc2ccccc2)n1	6.55 µM	52.8 µM	1.52 µM	4.49 µM	> 100 µM	2.35 µM	43.6 µM	31 µM					
COc1cc(C(=O)OCCCCCCCCCCC[P+](c2ccccc2)(c2ccccc2)c2ccccc2)ccc1O	0.301 µM	1.16 µM	0.312 µM	1.24 µM	6.52 µM			2.43 µM					
C[n+]1c(/C=C\C=C\N2CCCCC2)sc2ccccc21	1.01 µM	25.6 µM	0.266 µM	1.96 µM	> 100 µM	0.2 µM	2.72 µM	37.6 µM					
CNC(=O)c1cc(COc2nnc(Nc3ccc(Cl)cc3)c3ccoc23)ccn1	3.43 µM and > 10 µM	13.8 µM and > 10 µM	10.4 µM and > 10 µM	43.9 µM and > 10 µM	> 42.5 µM	2.87 µM and 5.77 µM	12.5 µM and > 10 µM	4.48 µM and > 10 µM					
C=CCC1OC(C)(C)Oc2ccc(OCOCCOC)cc21 (stereo unspecified)													> 100
Cc1ccc(C(=O)N(CCCN)[C@@H](c2nc3cc(Cl)ccc3c(=O)n2Cc2ccccc2)C(C)C)cc1	< 0.01 µM	0.233 µM and 0.172 µM	< 0.01 µM	< 0.01 µM	0.307 µM and 0.481 µM	< 0.01 µM	1.98 µM and 1.67 µM	0.0481 µM and 0.0406 µM					
COc1cc2c(cc1O)C=NCC2											> 100		> 100
O=[As](O)(O)c1ccc(NCc2ccccc2)cc1		> 100 µM		> 100 µM	> 100 µM		> 100 µM		> 100 µM				
C(=Nc1ccccc1)C1CCCC[N-]1.C(=Nc1ccccc1)C1CCCC[N-]1.[Cu+2].[O-][Cl+3]([O-])([O-])O (stereo unspecified)	9.75 µM	28.1 µM	1.57 µM	4.31 µM	29.7 µM	21.6 µM	> 100 µM	8.33 µM					
Cc1c2cc[nH]c(=O)c2c(C)c2c1[nH]c1cc(OCCN3CCN(C)CC3)ccc12	0.783 µM	3.19 µM	1.06 µM	2.43 µM	16.3 µM	0.782 µM	15.2 µM	3.37 µM					
